In ChEMBL document CHEMBL5724914, “Linking interpersonal differences in gut microbiota composition and drug biotransformation activity” (2024):

assay: (§1) The drug is tested on WLS-220 corresponding to human gut metagenome with ENA study accession number: PRJEB37062 and ENA sample accession number: ERS12561769 for biotransformation under anaerobic condition. The drug concentrations were measured over 9 timepoints collected between 0 and 24 hours of incubation by liquid-chromatography-coupled mass spectrometry (LC–MS); conditions: 2 µM
Also: call rule not given here.

Bacterial Biotransformation	SMILES
Compound metabolized	CC(=O)OCC(=O)[C@@]12N=C(C)O[C@@H]1C[C@H]1[C@@H]3CCC4=CC(=O)C=C[C@]4(C)[C@H]3[C@@H](O)C[C@@]12C [DEFLAZACORT]
Compound metabolized	O=c1n(CCCN2CCN(c3cccc(Cl)c3)CC2)nc2ccccn12 [TRAZODONE]

conditions: human gut metagenome, 24 h, 2 µM

Bacterial Biotransformation	SMILES
Compound metabolized	CC(=O)OCC(=O)[C@@]12N=C(C)O[C@@H]1C[C@H]1[C@@H]3CCC4=CC(=O)C=C[C@]4(C)[C@H]3[C@@H](O)C[C@@]12C [DEFLAZACORT]
Compound metabolized	O=c1n(CCCN2CCN(c3cccc(Cl)c3)CC2)nc2ccccn12 [TRAZODONE]

assay: as §1, with “WLS-350” for “WLS-220”, “ERS12561789” for “ERS12561769”; conditions: 2 µM

Bacterial Biotransformation	SMILES
Compound metabolized	CC(=O)OCC(=O)[C@@]12N=C(C)O[C@@H]1C[C@H]1[C@@H]3CCC4=CC(=O)C=C[C@]4(C)[C@H]3[C@@H](O)C[C@@]12C [DEFLAZACORT]
Compound metabolized	O=c1n(CCCN2CCN(c3cccc(Cl)c3)CC2)nc2ccccn12 [TRAZODONE]

assay: as §1, with “Z-004” for “WLS-220”, “to” for “to human gut”, “ERS12561804” for “ERS12561769”; conditions: 2 µM

Bacterial Biotransformation	SMILES
Compound metabolized	CC(=O)OCC(=O)[C@@]12N=C(C)O[C@@H]1C[C@H]1[C@@H]3CCC4=CC(=O)C=C[C@]4(C)[C@H]3[C@@H](O)C[C@@]12C [DEFLAZACORT]
Compound metabolized	O=c1n(CCCN2CCN(c3cccc(Cl)c3)CC2)nc2ccccn12 [TRAZODONE]

conditions: human gut metagenome, 24 h, 2 µM; remark: another data set of the same source

Bacterial Biotransformation	SMILES
Compound metabolized	CC(=O)OCC(=O)[C@@]12N=C(C)O[C@@H]1C[C@H]1[C@@H]3CCC4=CC(=O)C=C[C@]4(C)[C@H]3[C@@H](O)C[C@@]12C [DEFLAZACORT]
Compound metabolized	O=c1n(CCCN2CCN(c3cccc(Cl)c3)CC2)nc2ccccn12 [TRAZODONE]

conditions: human gut metagenome, 24 h, 2 µM; remark: another data set of the same source

Bacterial Biotransformation	SMILES
Compound metabolized	CC(=O)OCC(=O)[C@@]12N=C(C)O[C@@H]1C[C@H]1[C@@H]3CCC4=CC(=O)C=C[C@]4(C)[C@H]3[C@@H](O)C[C@@]12C [DEFLAZACORT]
Compound metabolized	O=c1n(CCCN2CCN(c3cccc(Cl)c3)CC2)nc2ccccn12 [TRAZODONE]

assay: as §1, with “Z-029” for “WLS-220”, “rat” for “human”, “ERS12561828” for “ERS12561769”; conditions: 2 µM

Bacterial Biotransformation	SMILES
Compound NOT metabolized	CC(=O)OCC(=O)[C@@]12N=C(C)O[C@@H]1C[C@H]1[C@@H]3CCC4=CC(=O)C=C[C@]4(C)[C@H]3[C@@H](O)C[C@@]12C [DEFLAZACORT]
Compound NOT metabolized	O=c1n(CCCN2CCN(c3cccc(Cl)c3)CC2)nc2ccccn12 [TRAZODONE]

conditions: human gut metagenome, 24 h, 2 µM; remark: another data set of the same source

Bacterial Biotransformation	SMILES
Compound metabolized	CC(=O)OCC(=O)[C@@]12N=C(C)O[C@@H]1C[C@H]1[C@@H]3CCC4=CC(=O)C=C[C@]4(C)[C@H]3[C@@H](O)C[C@@]12C [DEFLAZACORT]
Compound metabolized	O=c1n(CCCN2CCN(c3cccc(Cl)c3)CC2)nc2ccccn12 [TRAZODONE]

assay: as §1, with “Z-005” for “WLS-220”, “to” for “to human gut”, “ERS12561805” for “ERS12561769”; conditions: 2 µM

Bacterial Biotransformation	SMILES
Compound metabolized	CC(=O)OCC(=O)[C@@]12N=C(C)O[C@@H]1C[C@H]1[C@@H]3CCC4=CC(=O)C=C[C@]4(C)[C@H]3[C@@H](O)C[C@@]12C [DEFLAZACORT]
Compound NOT metabolized	O=c1n(CCCN2CCN(c3cccc(Cl)c3)CC2)nc2ccccn12 [TRAZODONE]

assay: as §1, with “Z-017” for “WLS-220”, “mouse” for “human”, “ERS12561816” for “ERS12561769”; conditions: 2 µM

Bacterial Biotransformation	SMILES
Compound metabolized	CC(=O)OCC(=O)[C@@]12N=C(C)O[C@@H]1C[C@H]1[C@@H]3CCC4=CC(=O)C=C[C@]4(C)[C@H]3[C@@H](O)C[C@@]12C [DEFLAZACORT]
Compound NOT metabolized	O=c1n(CCCN2CCN(c3cccc(Cl)c3)CC2)nc2ccccn12 [TRAZODONE]

conditions: human gut metagenome, 24 h, 2 µM; remark: another data set of the same source

Bacterial Biotransformation	SMILES
Compound metabolized	CC(=O)OCC(=O)[C@@]12N=C(C)O[C@@H]1C[C@H]1[C@@H]3CCC4=CC(=O)C=C[C@]4(C)[C@H]3[C@@H](O)C[C@@]12C [DEFLAZACORT]
Compound metabolized	O=c1n(CCCN2CCN(c3cccc(Cl)c3)CC2)nc2ccccn12 [TRAZODONE]

conditions: human gut metagenome, 24 h, 2 µM; remark: another data set of the same source

Bacterial Biotransformation	SMILES
Compound metabolized	CC(=O)OCC(=O)[C@@]12N=C(C)O[C@@H]1C[C@H]1[C@@H]3CCC4=CC(=O)C=C[C@]4(C)[C@H]3[C@@H](O)C[C@@]12C [DEFLAZACORT]
Compound NOT metabolized	O=c1n(CCCN2CCN(c3cccc(Cl)c3)CC2)nc2ccccn12 [TRAZODONE]

conditions: human gut metagenome, 24 h, 2 µM; remark: another data set of the same source

Bacterial Biotransformation	SMILES
Compound metabolized	CC(=O)OCC(=O)[C@@]12N=C(C)O[C@@H]1C[C@H]1[C@@H]3CCC4=CC(=O)C=C[C@]4(C)[C@H]3[C@@H](O)C[C@@]12C [DEFLAZACORT]
Compound metabolized	O=c1n(CCCN2CCN(c3cccc(Cl)c3)CC2)nc2ccccn12 [TRAZODONE]

assay: as §1, with “WLS-069” for “WLS-220”, “ERS12561748” for “ERS12561769”; conditions: 2 µM

Bacterial Biotransformation	SMILES
Compound metabolized	CC(=O)OCC(=O)[C@@]12N=C(C)O[C@@H]1C[C@H]1[C@@H]3CCC4=CC(=O)C=C[C@]4(C)[C@H]3[C@@H](O)C[C@@]12C [DEFLAZACORT]
Compound metabolized	O=c1n(CCCN2CCN(c3cccc(Cl)c3)CC2)nc2ccccn12 [TRAZODONE]

conditions: human gut metagenome, 24 h, 2 µM; remark: another data set of the same source

Bacterial Biotransformation	SMILES
Compound metabolized	CC(=O)OCC(=O)[C@@]12N=C(C)O[C@@H]1C[C@H]1[C@@H]3CCC4=CC(=O)C=C[C@]4(C)[C@H]3[C@@H](O)C[C@@]12C [DEFLAZACORT]
Compound NOT metabolized	O=c1n(CCCN2CCN(c3cccc(Cl)c3)CC2)nc2ccccn12 [TRAZODONE]

assay: as §1, with “Z-006” for “WLS-220”, “mouse” for “human”, “ERS12561806” for “ERS12561769”; conditions: 2 µM

Bacterial Biotransformation	SMILES
Compound metabolized	CC(=O)OCC(=O)[C@@]12N=C(C)O[C@@H]1C[C@H]1[C@@H]3CCC4=CC(=O)C=C[C@]4(C)[C@H]3[C@@H](O)C[C@@]12C [DEFLAZACORT]
Compound NOT metabolized	O=c1n(CCCN2CCN(c3cccc(Cl)c3)CC2)nc2ccccn12 [TRAZODONE]

conditions: human gut metagenome, 24 h, 2 µM; remark: another data set of the same source

Bacterial Biotransformation	SMILES
Compound metabolized	CC(=O)OCC(=O)[C@@]12N=C(C)O[C@@H]1C[C@H]1[C@@H]3CCC4=CC(=O)C=C[C@]4(C)[C@H]3[C@@H](O)C[C@@]12C [DEFLAZACORT]
Compound NOT metabolized	O=c1n(CCCN2CCN(c3cccc(Cl)c3)CC2)nc2ccccn12 [TRAZODONE]

assay: as §1, with “WLS-052” for “WLS-220”, “ERS12561747” for “ERS12561769”; conditions: 2 µM

Bacterial Biotransformation	SMILES
Compound metabolized	CC(=O)OCC(=O)[C@@]12N=C(C)O[C@@H]1C[C@H]1[C@@H]3CCC4=CC(=O)C=C[C@]4(C)[C@H]3[C@@H](O)C[C@@]12C [DEFLAZACORT]
Compound NOT metabolized	O=c1n(CCCN2CCN(c3cccc(Cl)c3)CC2)nc2ccccn12 [TRAZODONE]

conditions: human gut metagenome, 24 h, 2 µM; remark: another data set of the same source

Bacterial Biotransformation	SMILES
Compound metabolized	CC(=O)OCC(=O)[C@@]12N=C(C)O[C@@H]1C[C@H]1[C@@H]3CCC4=CC(=O)C=C[C@]4(C)[C@H]3[C@@H](O)C[C@@]12C [DEFLAZACORT]
Compound metabolized	O=c1n(CCCN2CCN(c3cccc(Cl)c3)CC2)nc2ccccn12 [TRAZODONE]

assay: as §1, with “Z-022” for “WLS-220”, “mouse” for “human”, “ERS12561821” for “ERS12561769”; conditions: 2 µM

Bacterial Biotransformation	SMILES
Compound metabolized	CC(=O)OCC(=O)[C@@]12N=C(C)O[C@@H]1C[C@H]1[C@@H]3CCC4=CC(=O)C=C[C@]4(C)[C@H]3[C@@H](O)C[C@@]12C [DEFLAZACORT]
Compound metabolized	O=c1n(CCCN2CCN(c3cccc(Cl)c3)CC2)nc2ccccn12 [TRAZODONE]
